# Like-named read-outs stand apart in the source and are kept apart here.
# What was measured:
# E. coli GC 2232 = experiment: MIC, broth microdilution; settings: Escherichia coli
# E. coli GC 2270 = experiment: MIC, broth microdilution; settings: Escherichia coli
# E. coli GC 2271 = experiment: MIC, broth microdilution; settings: Escherichia coli
# E. coli GC 4559 = experiment: MIC, broth microdilution; settings: Escherichia coli
# E. coli GC 3226 = experiment: MIC, broth microdilution; settings: Escherichia coli
# Description: Antimicrobial susceptibility testing. The in vitro activities of the antibiotics are determined by the broth microdilution method as recommended by the National Committee for Clinical Laboratory Standards (NCCLS) (1). Mueller-Hinton II broth (MHBII)(BBL Cockeysville, Md.) is the medium employed in the testing procedures. Microtiter plates containing serial dilutions of each antimicrobial agent are inoculated with each organism to yield the appropriate density (10^5 CFU/ml) in a 100 μl final volume. The plates are incubated for 18-22 hours at 35° C. in ambient air.
# Representative compounds were first incubated in mouse serum for an hour prior to the in vitro testing against a panel of selected gram-positive and gram-negative bacteria strains. All compounds were also pre-incubated in water for an hour prior to testing as control. Representative compounds of Formula I were incubated in human serum prior to MIC determination.
# E. coli GC 1073 = experiment: MIC, broth microdilution; settings: Escherichia coli
# P. aeruginosa GC 2214 = experiment: MIC, broth microdilution; settings: Pseudomonas aeruginosa
# S. aureus GC 4536 = experiment: MIC, broth microdilution; settings: Staphylococcus aureus
# S. aureus GC 2216 = experiment: MIC, broth microdilution; settings: Staphylococcus aureus
# S. aureus GC 6335 = experiment: MIC, broth microdilution; settings: Staphylococcus aureus
# S. aureus GC 6469 = experiment: MIC, broth microdilution; settings: Staphylococcus aureus
# E. faecalis GC 2265 = experiment: MIC, broth microdilution; settings: Enterococcus faecalis
# E. faecalis GC 2242 = experiment: MIC, broth microdilution; settings: Enterococcus faecalis
# E. faecium GC 2243 = experiment: MIC, broth microdilution; settings: Enterococcus faecium
# S. pneumoniae+ GC 4465 = experiment: MIC, broth microdilution; settings: Streptococcus pneumoniae
# S. pyogenes GC 4563 = experiment: MIC, broth microdilution; settings: Streptococcus pyogenes
# S. agalactiae GC 4564 = experiment: MIC, broth microdilution; settings: Streptococcus agalactiae
# c. albicans GC 3066 = experiment: MIC, broth microdilution; settings: for MIC: Candida albicans, GC3066, read-out: MINIMAL INHIBITORY CONCENTRATION MIC; for MINIMAL INHIBITORY CONCENTRATION MIC: pre-incubated in Water
# E. coli = experiment: Range of MIC for E. coli strains; settings: Escherichia coli
# Staph. aureus Smith = experiment: In vivo activity (oral, iv; ED50) against Staph. aureus Smith in mice
# Description: Representative examples of compounds of Formula I were tested for the oral efficacy using S. aureus Smith in mice.
# [1] = GC2232, read-out: MINIMAL INHIBITORY CONCENTRATION MIC, pre-incubated in Mouse Serum
# [2] = GC2232, read-out: MINIMAL INHIBITORY CONCENTRATION MIC, pre-incubated in Water
# [3] = GC2270, read-out: MINIMAL INHIBITORY CONCENTRATION MIC, pre-incubated in Mouse Serum
# [4] = GC2270, read-out: MINIMAL INHIBITORY CONCENTRATION MIC, pre-incubated in Water
# [5] = GC2271, read-out: MINIMAL INHIBITORY CONCENTRATION MIC, pre-incubated in Mouse Serum
# [6] = GC2271, read-out: MINIMAL INHIBITORY CONCENTRATION MIC, pre-incubated in Water
# [7] = GC4559, read-out: MINIMAL INHIBITORY CONCENTRATION MIC, pre-incubated in Mouse Serum
# [8] = GC4559, read-out: MINIMAL INHIBITORY CONCENTRATION MIC, pre-incubated in Water
# [9] = GC3226, read-out: MINIMAL INHIBITORY CONCENTRATION MIC, pre-incubated in Mouse Serum
# [10] = GC3226, read-out: MINIMAL INHIBITORY CONCENTRATION MIC, pre-incubated in Water
# [11] = GC1073, read-out: MINIMAL INHIBITORY CONCENTRATION MIC, pre-incubated in Mouse Serum
# [12] = GC1073, read-out: MINIMAL INHIBITORY CONCENTRATION MIC, pre-incubated in Water
# [13] = GC2214, read-out: MINIMAL INHIBITORY CONCENTRATION MIC, pre-incubated in Mouse Serum
# [14] = GC2214, read-out: MINIMAL INHIBITORY CONCENTRATION MIC, pre-incubated in Water
# [15] = GC4536, read-out: MINIMAL INHIBITORY CONCENTRATION MIC, pre-incubated in Mouse Serum
# [16] = GC4536, read-out: MINIMAL INHIBITORY CONCENTRATION MIC, pre-incubated in Water
# [17] = GC2216, read-out: MINIMAL INHIBITORY CONCENTRATION MIC, pre-incubated in Mouse Serum
# [18] = GC2216, read-out: MINIMAL INHIBITORY CONCENTRATION MIC, pre-incubated in Water
# [19] = GC6335, read-out: MINIMAL INHIBITORY CONCENTRATION MIC, pre-incubated in Mouse Serum
# [20] = GC6335, read-out: MINIMAL INHIBITORY CONCENTRATION MIC, pre-incubated in Water
# [21] = GC6469, read-out: MINIMAL INHIBITORY CONCENTRATION MIC, pre-incubated in Mouse Serum
# [22] = GC6469, read-out: MINIMAL INHIBITORY CONCENTRATION MIC, pre-incubated in Water
# [23] = GC2265, read-out: MINIMAL INHIBITORY CONCENTRATION MIC, pre-incubated in Mouse Serum
# [24] = GC2265, read-out: MINIMAL INHIBITORY CONCENTRATION MIC, pre-incubated in Water
# [25] = GC2242, read-out: MINIMAL INHIBITORY CONCENTRATION MIC, pre-incubated in Mouse Serum
# [26] = GC2242, read-out: MINIMAL INHIBITORY CONCENTRATION MIC, pre-incubated in Water
# [27] = GC2243, read-out: MINIMAL INHIBITORY CONCENTRATION MIC, pre-incubated in Mouse Serum
# [28] = GC2243, read-out: MINIMAL INHIBITORY CONCENTRATION MIC, pre-incubated in Water
# [29] = read-out: MINIMAL INHIBITORY CONCENTRATION MIC, pre-incubated in Mouse Serum
# [30] = read-out: MINIMAL INHIBITORY CONCENTRATION MIC, pre-incubated in Water
# [31] = GC4563, read-out: MINIMAL INHIBITORY CONCENTRATION MIC, pre-incubated in Mouse Serum
# [32] = GC4563, read-out: MINIMAL INHIBITORY CONCENTRATION MIC, pre-incubated in Water
# [33] = GC4564, read-out: MINIMAL INHIBITORY CONCENTRATION MIC, pre-incubated in Mouse Serum
# [34] = GC4564, read-out: MINIMAL INHIBITORY CONCENTRATION MIC, pre-incubated in Water
# [35] = 20 h, read-out: Range of MIC, E. coli (Mouse Serum)
# [36] = read-out: Range of MIC, E. coli (mouse serum)
# [37] = Staphylococcus aureus, in Mus musculus, iv, read-out: ED50 SIV (Staph aureus Smith)
# [38] = Staphylococcus aureus, in Mus musculus, po, read-out: ED50 SOD (Staph aureus Smith)
# [39] = Staphylococcus aureus, in Mus musculus, po, read-out: ED50 Staph Smith SOD
# [40] = iv, read-out: ED50 Staph Smith SIV
structure (smiles),measurement,setting,value
"CCCN(CC(=O)Nc1cc(N(C)C)c2c(c1O)C(=O)C1=C(O)[C@]3(O)C(=O)C(C(N)=O)=C(O)[C@@H](N(C)C)[C@@H]3C[C@@H]1C2)C(=O)OCOC(=O)c1ccsc1 [Example 27, ({[(2-{[(5aR,6aS,7S,10aS)-9-(aminocarbonyl)-4,7-bis(dimethylamino)-1,8,10a,11-tetrahydroxy-10,12-dioxo-5,5a,6,6a,7,10,10a,12-octahydrotetracen-2-yl]amino}-2-oxoethyl)(propyl)amino]carbonyl}oxy)methyl thiophene-3-carboxylate]",MIC,E. coli GC 2232; [1],0.5 µg/mL
same,MIC,E. coli GC 2232; [2],64 µg/mL
same,MIC,E. coli GC 2270; [3],0.5 µg/mL
same,MIC,E. coli GC 2270; [4],64 µg/mL
same,MIC,E. coli GC 2271; [5],0.5 µg/mL
same,MIC,E. coli GC 2271; [6],64 µg/mL
same,MIC,E. coli GC 4559; [7],0.5 µg/mL
same,MIC,E. coli GC 4559; [8],> 64 µg/mL
same,MIC,E. coli GC 3226; [9],0.5 µg/mL
same,MIC,E. coli GC 3226; [10],> 64 µg/mL
same,MIC,E. coli GC 1073; [11],0.5 µg/mL
same,MIC,E. coli GC 1073; [12],> 64 µg/mL
same,MIC,P. aeruginosa GC 2214; [13],8 µg/mL
same,MIC,P. aeruginosa GC 2214; [14],> 64 µg/mL
same,MIC,S. aureus GC 4536; [15],0.12 µg/mL
same,MIC,S. aureus GC 4536; [16],0.12 µg/mL
same,MIC,S. aureus GC 2216; [17],0.25 µg/mL
same,MIC,S. aureus GC 2216; [18],0.25 µg/mL
same,MIC,S. aureus GC 6335; [19],0.25 µg/mL
same,MIC,S. aureus GC 6335; [20],0.5 µg/mL
same,MIC,S. aureus GC 6469; [21],1 µg/mL
same,MIC,S. aureus GC 6469; [22],2 µg/mL
same,MIC,E. faecalis GC 2265; [23],1 µg/mL
same,MIC,E. faecalis GC 2265; [24],2 µg/mL
same,MIC,E. faecalis GC 2242; [25],0.5 µg/mL
same,MIC,E. faecalis GC 2242; [26],0.5 µg/mL
same,MIC,E. faecium GC 2243; [27],0.12 µg/mL
same,MIC,E. faecium GC 2243; [28],0.25 µg/mL
same,MIC,S. pneumoniae+ GC 4465; [29],1 µg/mL
same,MIC,S. pneumoniae+ GC 4465; [30],2 µg/mL
same,MIC,S. pyogenes GC 4563; [31],< 0.06 µg/mL
same,MIC,S. pyogenes GC 4563; [32],< 0.06 µg/mL
same,MIC,S. agalactiae GC 4564; [33],0.12 µg/mL
same,MIC,S. agalactiae GC 4564; [34],0.12 µg/mL
same,MIC,c. albicans GC 3066,> 64 µg/mL
same,MINIMAL INHIBITORY CONCENTRATION MIC,c. albicans GC 3066,>64 UG/ML
same,MIC,E. coli; [35],0.5 to 1 µg/mL
same,MIC,"E. coli; read-out: Minimum inhibitory concentration (MIC), E. coli (Human Serum)",4 to 16 µg/mL
same,MIC,E. coli; [36],0.5 to 1 µg/mL
same,ED50,Staph. aureus Smith; [37],0.44 mg/kg
same,ED50,Staph. aureus Smith; [38],3.9 mg/kg
same,ED50,Staph. aureus Smith; [39],3.9 mg/kg
same,ED50,Staph. aureus Smith; [40],0.44 mg/kg
"CCCN(CC(=O)Nc1cc(N(C)C)c2c(c1O)C(=O)C1=C(O)[C@]3(O)C(=O)C(C(N)=O)=C(O)[C@@H](N(C)C)[C@@H]3C[C@@H]1C2)C(=O)OCOC(=O)c1ccc(C(C)(C)C)cc1 [Example 28, ({[(2-{[(5aR,6aS,7S,10aS)-9-(aminocarbonyl)-4,7-bis(dimethylamino)-1,8,10a,11-tetrahydroxy-10,12-dioxo-5,5a,6,6a,7,10,10a,12-octahydrotetracen-2-yl]amino}-2-oxoethyl)(propyl)amino]carbonyl}oxy)methyl 4-tert-butylbenzoate]",MIC,E. coli GC 2232; [1],0.5 µg/mL
same,MIC,E. coli GC 2232; [2],> 64 µg/mL
same,MIC,E. coli GC 2270; [3],0.5 µg/mL
same,MIC,E. coli GC 2270; [4],> 64 µg/mL
same,MIC,E. coli GC 2271; [5],0.25 µg/mL
same,MIC,E. coli GC 2271; [6],> 64 µg/mL
same,MIC,E. coli GC 4559; [7],0.5 µg/mL
same,MIC,E. coli GC 4559; [8],> 64 µg/mL
same,MIC,E. coli GC 3226; [9],0.5 µg/mL
same,MIC,E. coli GC 3226; [10],> 64 µg/mL
same,MIC,E. coli GC 1073; [11],0.5 µg/mL
same,MIC,E. coli GC 1073; [12],> 64 µg/mL
same,MIC,P. aeruginosa GC 2214; [13],16 µg/mL
same,MIC,P. aeruginosa GC 2214; [14],> 64 µg/mL
same,MIC,S. aureus GC 4536; [15],0.5 µg/mL
same,MIC,S. aureus GC 4536; [16],32 µg/mL
same,MIC,S. aureus GC 2216; [17],0.5 µg/mL
same,MIC,S. aureus GC 2216; [18],32 µg/mL
same,MIC,S. aureus GC 6335; [19],1 µg/mL
same,MIC,S. aureus GC 6335; [20],16 µg/mL
same,MIC,S. aureus GC 6469; [21],4 µg/mL
same,MIC,S. aureus GC 6469; [22],64 µg/mL
same,MIC,E. faecalis GC 2265; [23],2 µg/mL
same,MIC,E. faecalis GC 2265; [24],64 µg/mL
same,MIC,E. faecalis GC 2242; [25],0.5 µg/mL
same,MIC,E. faecalis GC 2242; [26],4 µg/mL
same,MIC,E. faecium GC 2243; [27],0.25 µg/mL
same,MIC,E. faecium GC 2243; [28],0.25 µg/mL
same,MIC,S. pneumoniae+ GC 4465; [29],2 µg/mL
same,MIC,S. pneumoniae+ GC 4465; [30],0.5 µg/mL
same,MIC,S. pyogenes GC 4563; [31],< 0.06 µg/mL
same,MIC,S. pyogenes GC 4563; [32],< 0.06 µg/mL
same,MIC,S. agalactiae GC 4564; [33],0.25 µg/mL
same,MIC,S. agalactiae GC 4564; [34],0.5 µg/mL
same,MIC,c. albicans GC 3066,> 64 µg/mL
same,MINIMAL INHIBITORY CONCENTRATION MIC,c. albicans GC 3066,>64 UG/ML
same,MIC,E. coli; [35],0.25 to 1 µg/mL
same,MIC,"E. coli; read-out: Range of MIC, E. coli (Water)",> 64 µg/mL
same,MIC,E. coli; [36],0.25 to 1 µg/mL
same,MIC,"E. coli; read-out: Range of MIC, E. coli (water)",> 64 µg/mL
same,ED50,Staph. aureus Smith; [37],0.6 mg/kg
same,ED50,Staph. aureus Smith; [38],6.61 mg/kg
same,ED50,Staph. aureus Smith; [39],6.61 mg/kg
same,ED50,Staph. aureus Smith; [40],0.6 mg/kg
